In ChEMBL document CHEMBL5154708, “Synthesis of tropane-based σ1 receptor antagonists with antiallodynic activity” (Eur J Med Chem, 2022):

Legend:
[1] = biological target: T1, Sigma intracellular receptor 2 (Rattus norvegicus, UniProt Q5U3Y7); assay: Displacement of [3H]di-O-tolylguanidine from sigma 2 receptor in rat liver membrane by competitive radioligand receptor binding assay; type: cell membranes
T1 sequence (Q5U3Y7 whole entry): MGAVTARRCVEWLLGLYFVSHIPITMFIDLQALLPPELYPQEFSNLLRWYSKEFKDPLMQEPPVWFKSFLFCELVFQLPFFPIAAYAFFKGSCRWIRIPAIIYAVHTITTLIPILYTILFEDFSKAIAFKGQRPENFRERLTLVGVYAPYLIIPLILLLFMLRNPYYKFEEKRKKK

[2] = biological target: Sigma non-opioid intracellular receptor 1 (Cavia porcellus, UniProt Q60492)
Albumin = Albumin (Homo sapiens, UniProt P02768); assay: Protein binding in human serum albumin by HPAC analysis; type: ADME; settings: read-out: PB (converted)
[3] = Distribution coefficient between n-Octanol and aqueous buffer, logD of the compound in pH 7.4 buffer by LC/MS analysis; type: physicochemical
Mus musculus = assay: Antiallodynic activity in capsaicin-induced mechanical allodynia CD1 mouse model assessed as reduction in mechanical allodynia administered subcutaneously preincubated for 30 min followed by capsaicin injection and measured after 15 mins by Von Frey filament assay; type: functional, organism-based; settings: dose 8-32 mg/kg, route sc, time 45.0 min, DDE = dose-dependent effect
[4] = Drug metabolism in mouse liver microsomes assessed as compound oxidization incubated for 90 mins in presence of NAPDH; type: ADME, Microsome; settings: read-out: Drug metabolism

Sequence of Sigma non-opioid intracellular receptor 1 (Q60492 whole entry): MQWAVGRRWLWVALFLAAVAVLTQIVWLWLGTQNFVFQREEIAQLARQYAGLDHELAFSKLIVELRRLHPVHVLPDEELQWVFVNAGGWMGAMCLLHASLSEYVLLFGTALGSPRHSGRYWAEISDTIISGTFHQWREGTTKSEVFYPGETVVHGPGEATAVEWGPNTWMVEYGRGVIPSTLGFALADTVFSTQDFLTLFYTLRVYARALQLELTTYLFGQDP
Sequence of Albumin (P02768 whole entry): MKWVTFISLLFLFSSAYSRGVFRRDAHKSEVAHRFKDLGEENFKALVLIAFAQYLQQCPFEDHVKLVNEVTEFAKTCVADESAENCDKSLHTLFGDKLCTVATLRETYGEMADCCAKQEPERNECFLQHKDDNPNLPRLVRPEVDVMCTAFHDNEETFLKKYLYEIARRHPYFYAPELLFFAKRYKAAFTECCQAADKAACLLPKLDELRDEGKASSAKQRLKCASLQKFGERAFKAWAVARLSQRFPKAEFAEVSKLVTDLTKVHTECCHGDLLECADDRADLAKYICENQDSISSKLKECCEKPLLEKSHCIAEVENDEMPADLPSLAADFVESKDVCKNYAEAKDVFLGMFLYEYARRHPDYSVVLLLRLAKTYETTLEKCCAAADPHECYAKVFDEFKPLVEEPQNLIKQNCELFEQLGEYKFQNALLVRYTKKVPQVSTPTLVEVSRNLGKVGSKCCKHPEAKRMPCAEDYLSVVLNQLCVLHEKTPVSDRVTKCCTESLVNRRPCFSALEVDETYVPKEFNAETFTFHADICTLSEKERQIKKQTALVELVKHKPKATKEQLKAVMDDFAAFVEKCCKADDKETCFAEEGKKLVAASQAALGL

Structure (SMILES)	Ki [1]	Ki [2]	fraction unbound (Albumin)	logD [3]	Activity (Mus musculus)	metabolised at 1.5 h [4]
O[C@H](CN1[C@@H]2CC[C@H]1C/C(=C\c1ccc(F)cc1)C2)c1ccccc1	27 nM	6.6 nM				
O[C@@H](CN1[C@@H]2CC[C@H]1C/C(=C/c1ccc(F)cc1)C2)c1ccccc1	29 nM	18 nM				
O[C@H](CN1[C@@H]2CC[C@H]1C/C(=C/c1ccc(F)cc1)C2)c1ccccc1	11 nM	0.45 nM				
OC(CN1CCC(Cc2ccc(F)cc2)CC1)c1ccc(Cl)cc1 (centres undefined) [ELIPRODIL]	71 nM	94 nM				
O[C@@H](CN1[C@@H]2CC[C@H]1C/C(=C\c1ccc(F)cc1)C2)c1ccccc1	10 nM	0.8 nM	0.05	3.06	Dde	32%
